According to patent US20100075907A1, “NEUROMEDIN U RECEPTOR AGONISTS AND USES THEREOF” (priority 2006, published 2010):
Starred links: 1 amine or outer side, 2 acyl side, 3 side chain; linkers in the order of their positions; H or OH if unused. Non-standard residues stand in square brackets, D forms with d. Residues, ends and D or L forms follow the SMILES beside them. *: point of attachment. X2 = CCN1C(=O)CC(SC[C@H](NC(C)=O)C(=O)NCCCOCCOCCOCCCN*)C1=O; Succinimide(1-Et,3-yl) = CCN1C(=O)CC(*)C1=O; Suc = O=C(CCC(=O)[*:2])[*:1]

What was measured:
Mouse NMUR1-CTG = target: T1, Mouse NMUR1-CTG (Mus musculus, UniProt O55040); assay: FLIPR calcium mobilization assay, mouse NMUR1-CTG; assay type: cell-based; design: expressed in transfected cells; host or cells: FLP-In CHO or HEK-293 FLP-In cells (pcDNA5); conditions: for EC50: FLIPR; for IC50: functional data
T1 sequence (O55040 1-428): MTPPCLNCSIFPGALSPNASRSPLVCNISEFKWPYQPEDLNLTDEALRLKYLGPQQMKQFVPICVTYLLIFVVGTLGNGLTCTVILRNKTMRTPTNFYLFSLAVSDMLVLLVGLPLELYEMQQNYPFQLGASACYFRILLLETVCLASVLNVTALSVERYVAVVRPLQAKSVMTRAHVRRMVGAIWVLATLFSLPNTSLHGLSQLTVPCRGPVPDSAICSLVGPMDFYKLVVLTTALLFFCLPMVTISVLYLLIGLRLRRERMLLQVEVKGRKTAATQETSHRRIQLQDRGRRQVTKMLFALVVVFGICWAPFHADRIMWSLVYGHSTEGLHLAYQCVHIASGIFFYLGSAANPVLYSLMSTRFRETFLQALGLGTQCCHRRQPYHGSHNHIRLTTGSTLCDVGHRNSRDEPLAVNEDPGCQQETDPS
Description: (§1) Human, mouse or rat cDNAs encoding NMUR1 or NMUR2 (as described in Howard et al. Nature 406: 70-74 (2000) were subcloned in pcDNA5 (Invitrogen) and transfected into FLP-In CHO cells and HEK-293 FLP-In cells purchased from Invitrogen (Carlsbad, Calif.) using lipofectamine (Invitrogen). The Flp-In system allows integration and expression of a particular gene of interest at a specific genomic location utilizing the Flp recombinase from yeast. The transfected cells were selected by growth in medium containing 200 μg/mL hygromycin (Invitrogen). Populations were frozen at early passage numbers, and these stocks were used for further studies. Stable clones that expressed the mRNAs were identified functionally by FLIPR as well as by RT-PCR. […] Two different rodent NMUR1 cell lines were thus generated: one with the codon as predicted from the genomic databases and another cell line with an engineered methionine (ATG) as the start codon. Additionally, stable cell lines expressing the human receptors were generated in HEK-293/aeq17 cells which stably express the aequorin gene under the CMV promoter. The human NMUR2 cDNA was cloned into pcDNA3.1 and human NMUR1 was subcloned into pIRES-puro (Clontech, Mountain View, Calif.), after transfection cells were selected in media containing G418 and either hygromycin (NMUR2) or puromycin (NMUR1).
(§2) The NMU receptors signal primarily through Gαq/11 proteins; therefore calcium mobilization assays can be utilized for functional activity.
(§3) Stable cell lines expressing human and or rodent NMUR1 or human NMUR2 receptors were plated at a density of 12,000 cells per well overnight on poly-lysine coated 384-well black-walled plates. The following day, the media was removed from the plates and the cells were subsequently loaded with Fluo-3 (Molecular Probes), a calcium sensitive dye, diluted in FLIPR buffer (1× Hank's buffered saline containing 20 mM HEPES, 0.1% BSA, 2.5 mM probenecid (Sigma) and 1.6 mM TR40). All reagents are from Invitrogen unless otherwise noted. Peptide stocks were resuspended in DMSO at a stock concentration of 2 mM and diluted in FLIPR buffer on the day of the experiment to a 4 μM working stock solution.
(§4) After a 90 minute incubation at room-temperature, cell plates were loaded onto a FLIPR (Molecular Devices) to monitor cellular fluorescence (excitation=488 nm; emission=540 nm) before and after compound/peptide addition. Eight to twelve point dose responses were tested on NMUR-expressing cell lines using FLIPR with 1 μM peptide as the highest dose. The response after peptide addition was taken as the maximum fluorescence units minus the fluorescence immediately prior to stimulation for each well. EC50 values were calculated using GraphPad Prism (San Diego, Calif.) software.
(§5) In vitro responses of Neuromedin U receptor agonists (NMU1 to NMU25) in the FLIPR assay for human (Table 3), mouse (Table 4) and rat (Table 5) NMUR1 and NMUR2. EC50s are reported in nM values. Percent activity refers to the maximum response at 1 μM compared to the hNMU-25 response at the same concentration. NT=not tested.

rat NMUR1-ATG = target: T2, rat NMUR1-ATG (Rattus norvegicus, UniProt Q9JJI5); assay: FLIPR calcium mobilization assay, rat NMUR1-ATG; assay type: cell-based; design: expressed in transfected cells; host or cells: FLP-In CHO or HEK-293 FLP-In cells (pcDNA5); conditions: for EC50: FLIPR
T2 sequence (Q9JJI5 1-425): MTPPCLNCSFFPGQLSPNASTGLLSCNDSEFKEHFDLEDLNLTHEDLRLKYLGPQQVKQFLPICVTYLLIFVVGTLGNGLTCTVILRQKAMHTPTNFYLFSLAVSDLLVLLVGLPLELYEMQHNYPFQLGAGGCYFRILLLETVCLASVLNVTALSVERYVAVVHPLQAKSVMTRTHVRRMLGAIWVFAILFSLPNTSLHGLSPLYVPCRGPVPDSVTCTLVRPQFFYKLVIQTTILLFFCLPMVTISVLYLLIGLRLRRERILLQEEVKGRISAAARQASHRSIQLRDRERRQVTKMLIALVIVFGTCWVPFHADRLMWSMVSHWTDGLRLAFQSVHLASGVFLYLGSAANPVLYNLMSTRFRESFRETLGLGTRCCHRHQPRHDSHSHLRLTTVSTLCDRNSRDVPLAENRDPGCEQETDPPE
Description: as §1, §2, §3, §4, §5

[1] = maximum response at 1 μM compared to hNMU-25, mouse NMUR1-CTG
[2] = maximum response at 1 μM compared to hNMU-25, rat NMUR1-ATG

| Molecule | EC50 (Mouse NMUR1-CTG; mouse NMUR1-CTG) | % Activity (Mouse NMUR1-CTG; [1]) | % Activity (rat NMUR1-ATG; [2]) | EC50 (rat NMUR1-ATG; rat NMUR1-ATG) | IC50 (Mouse NMUR1-CTG; mouse R1-CTG) | % Activity (Mouse NMUR1-CTG; functional, mouse R1-CTG, relative to native hNMU responses) | % Activity (rat NMUR1-ATG; functional, rat R1-ATG, relative to native hNMU responses) | IC50 (rat NMUR1-ATG; functional data, rat R1-ATG) |
| --- | --- | --- | --- | --- | --- | --- | --- | --- |
| CCN1C(=O)CC(SC[C@H](NC(C)=O)C(=O)NCCCOCCOCCOCCCNC(=O)CCC(=O)N[C@@H](Cc2ccccc2)C(=O)N[C@@H](CC(C)C)C(=O)N[C@@H](Cc2ccccc2)C(=O)N[C@@H](CCCNC(=N)N)C(=O)N2CCC[C@H]2C(=O)N[C@@H](CCCNC(=N)N)C(=O)N[C@@H](CC(N)=O)C(N)=O)C1=O (stereo partly drawn) [NMU15, Ac-C1-Ttds-FLFRPRN-CONH2] ({X2-Suc}-FLFRPRN-NH2) |  | 100% | 100% |  |  |  |  |  |
| CCN1C(=O)CC(SC[C@H](NC(C)=O)C(=O)N[C@@H](Cc2ccccc2)C(=O)N[C@@H](CCCNC(=N)N)C(=O)N[C@H](C(=O)N[C@@H](CC(=O)O)C(=O)N[C@@H](CCC(=O)O)C(=O)N[C@@H](CCC(=O)O)C(=O)N[C@@H](Cc2ccccc2)C(=O)N[C@@H](CCC(N)=O)C(=O)N[C@@H](CO)C(=O)N2CCC[C@H]2C(=O)N[C@@H](Cc2ccccc2)C(=O)N[C@@H](C)C(=O)N[C@@H](CO)C(=O)N[C@@H](CCC(N)=O)C(=O)N[C@@H](CO)C(=O)N[C@@H](CCCNC(=N)N)C(=O)NCC(=O)N[C@@H](Cc2ccc(O)cc2)C(=O)N[C@@H](Cc2ccccc2)C(=O)N[C@H](C)C(=O)N[C@@H](Cc2c[nH]c3ccccc23)C(=O)N[C@@H](CCCNC(=N)N)C(=O)N2CCC[C@H]2C(=O)N[C@@H](CCCNC(=N)N)C(=O)N[C@@H](CC(N)=O)C(N)=O)C(C)C)C1=O (stereo partly drawn) [NMU13] (Ac-C(Succinimide(1-Et,3-yl))FRVDEEFQSPFASQSRGYF[dA]WRPRN-NH2) | 141 nM | 73.6% | 100% |  | 14 nM | 88% | 92% |  |
| H-FRVDEEFQSPFASQSRGYFLFRPRN-NH2 [hNMU-25, reference compound] |  |  |  |  | 2.9 nM |  |  | 1.3 nM |
| CCN1C(=O)CC(SC[C@H](NC(C)=O)C(=O)NCC(=O)N[C@@H](Cc2ccc(O)cc2)C(=O)N[C@@H](Cc2ccccc2)C(=O)N[C@@H](CC(C)C)C(=O)N[C@@H](Cc2ccccc2)C(=O)N[C@@H](CCCNC(=N)N)C(=O)N2CCC[C@H]2C(=O)N[C@@H](CCCNC(=N)N)C(=O)N[C@@H](CC(N)=O)C(N)=O)C1=O (stereo partly drawn) [NMU6] (Ac-C(Succinimide(1-Et,3-yl))GYFLFRPRN-NH2) |  | 100% | 100% | 1 nM |  |  |  |  |

The next lines start with results.

| EC50 (Mouse NMUR1-CTG; mouse NMUR1-CTG) | % Activity (Mouse NMUR1-CTG; [1]) | % Activity (rat NMUR1-ATG; [2]) | EC50 (rat NMUR1-ATG; rat NMUR1-ATG) | Molecule | IC50 (Mouse NMUR1-CTG; mouse R1-CTG) | % Activity (Mouse NMUR1-CTG; functional, mouse R1-CTG, relative to native hNMU responses) | % Activity (rat NMUR1-ATG; functional, rat R1-ATG, relative to native hNMU responses) | IC50 (rat NMUR1-ATG; functional data, rat R1-ATG) |
| --- | --- | --- | --- | --- | --- | --- | --- | --- |
| 2.9 nM | 116.6% | 100% |  | CCN1C(=O)CC(SC[C@H](NC(C)=O)C(=O)N[C@@H](C)C(=O)N[C@@H](CO)C(=O)N[C@@H](CCC(N)=O)C(=O)N[C@@H](CO)C(=O)N[C@@H](CCCNC(=N)N)C(=O)NCC(=O)N[C@@H](Cc2ccc(O)cc2)C(=O)N[C@@H](Cc2ccccc2)C(=O)N[C@@H](CC(C)C)C(=O)N[C@@H](Cc2ccccc2)C(=O)N[C@@H](CCCNC(=N)N)C(=O)N2CCC[C@H]2C(=O)N[C@@H](CCCNC(=N)N)C(=O)N[C@@H](CC(N)=O)C(N)=O)C1=O (stereo partly drawn) [NMU17] (Ac-C(Succinimide(1-Et,3-yl))ASQSRGYFLFRPRN-NH2) |  |  |  |  |
|  | 110.8% | 100% |  | CCN1C(=O)CC(SC[C@H](NC(C)=O)C(=O)N[C@@H](Cc2ccccc2)C(=O)N[C@@H](CCC(N)=O)C(=O)N[C@@H](CO)C(=O)N2CCC[C@H]2C(=O)N[C@@H](Cc2ccccc2)C(=O)N[C@@H](C)C(=O)N[C@@H](CO)C(=O)N[C@@H](CCC(N)=O)C(=O)N[C@@H](CO)C(=O)N[C@@H](CCCNC(=N)N)C(=O)NCC(=O)N[C@@H](Cc2ccc(O)cc2)C(=O)N[C@@H](Cc2ccccc2)C(=O)N[C@@H](CC(C)C)C(=O)N[C@@H](Cc2ccccc2)C(=O)N[C@@H](CCCNC(=N)N)C(=O)N2CCC[C@H]2C(=O)N[C@@H](CCCNC(=N)N)C(=O)N[C@@H](CC(N)=O)C(N)=O)C1=O (stereo partly drawn) [NMU19] (Ac-C(Succinimide(1-Et,3-yl))FQSPFASQSRGYFLFRPRN-NH2) |  |  |  |  |
| 480 nM | 65.4% |  | 7.2 nM | Ac-C2FQSPFASQSRGYFLFRPRN-CONH2 ({Ac-C(PEG 40 kDa)}-FQSPFASQSRGYFLFRPRN-NH2; not fully specified; printed as Ac-C2FQSPFASQSRGYFLFRPRN-CONH2) [NMU20, C2 = Cys(PEG)240 kDa] |  |  |  |  |
